# Laboratory results from patent US20180161310A1, “COMPOUNDS AND METHODS FOR THE TREATMENT OF NEUROLOGICAL DISORDERS” (Teleos Therapeutics, LLC, priority 2016, published 2018).
# Values joined by “and” are separate entries in the source; they are usually repeats but may differ in a detail not shown here. Equal entries are not always repeated.
# Columns and labels:
# [1] = molecular target: T1, human KCC2 (Homo sapiens, UniProt Q9H2X9); test: Thallium flux assay in HEK293 cells transiently transfected with human KCC2; type: cell-based; conditions: HEK293 cells over-expressing human KCC2
# T1 construct: expressed in transfected cells; host or cells: HEK293
# T1 sequence (Q9H2X9 1-1139): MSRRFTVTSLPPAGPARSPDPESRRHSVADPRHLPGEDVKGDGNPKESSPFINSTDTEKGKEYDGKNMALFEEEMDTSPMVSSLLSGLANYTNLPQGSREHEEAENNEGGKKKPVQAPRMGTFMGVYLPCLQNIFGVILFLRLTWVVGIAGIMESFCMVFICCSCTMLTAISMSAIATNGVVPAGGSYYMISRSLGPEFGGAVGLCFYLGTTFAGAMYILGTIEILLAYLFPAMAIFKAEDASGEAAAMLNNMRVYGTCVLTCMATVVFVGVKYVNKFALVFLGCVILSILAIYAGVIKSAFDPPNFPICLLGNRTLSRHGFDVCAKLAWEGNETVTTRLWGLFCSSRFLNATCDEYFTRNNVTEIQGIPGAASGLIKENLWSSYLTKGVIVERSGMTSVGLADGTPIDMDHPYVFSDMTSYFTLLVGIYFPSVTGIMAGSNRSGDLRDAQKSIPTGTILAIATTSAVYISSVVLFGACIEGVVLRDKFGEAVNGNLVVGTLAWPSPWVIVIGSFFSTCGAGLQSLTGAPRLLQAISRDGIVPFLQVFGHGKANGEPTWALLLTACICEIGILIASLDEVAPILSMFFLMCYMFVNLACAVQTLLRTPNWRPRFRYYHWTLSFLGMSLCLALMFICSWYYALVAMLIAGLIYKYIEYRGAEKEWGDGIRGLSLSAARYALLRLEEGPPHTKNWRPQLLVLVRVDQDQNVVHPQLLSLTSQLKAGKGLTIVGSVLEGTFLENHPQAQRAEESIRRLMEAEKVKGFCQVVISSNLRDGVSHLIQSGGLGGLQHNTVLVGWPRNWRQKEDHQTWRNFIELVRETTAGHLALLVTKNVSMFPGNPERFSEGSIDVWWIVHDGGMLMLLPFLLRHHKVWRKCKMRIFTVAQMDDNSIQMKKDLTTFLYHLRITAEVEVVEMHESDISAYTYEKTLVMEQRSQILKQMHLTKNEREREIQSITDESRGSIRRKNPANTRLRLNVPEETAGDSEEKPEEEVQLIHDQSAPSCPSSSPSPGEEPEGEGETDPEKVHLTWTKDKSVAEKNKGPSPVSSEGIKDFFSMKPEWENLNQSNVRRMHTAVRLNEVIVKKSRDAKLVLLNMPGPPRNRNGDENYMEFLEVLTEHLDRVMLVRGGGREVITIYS
# Experimental: Phenotype-based screens, as described herein, are high-content and make use of complex behaviors to identify novel modulators, which may function through various mechanisms. Thus, hits identified in the suppressor screens described herein may or may not act directly on KCC2. To test whether the three hit compounds directly alter the activity of the transporter, thallium flux assays were performed in HEK293 cells transiently transfected with human KCC2 in order to measure the influx rate of KCC2 activity (see, e.g., Appendix B).
# [2] = system: zebrafish larvae; type: in vivo
# From the text: In an effort to determine how pharmacological inhibition of KCC2 affects zebrafish behaviors, 7 days post-fertilization (dpf) zebrafish larvae can be treated with two analogs of the selective KCC2 inhibitor, VU0463271 and VU0240551, and their behavioral responses in a battery of behavioral assays can be assessed. These behavioral assays can include a series of visual and acoustic stimuli presented to larval zebrafish in various contexts and combinations to elicit robust and reproducible patterns of activity. For example, behavioral assays can include two acoustic-stimulus-response (ASR1 and ASR2) assays, six visual-stimulus-response (VSR1-VSR6) assays, and three assays that combine acoustic and visual stimulus responses (AVSR1-AVSR3). Together, such a battery of behavioral assays use six stimuli, including red light (600 nm), blue light (420 nm), violet light (405 nm), green light (525 nm), low-intensity sound (60 dB) and high-intensity sound (70 dB). Behavioral responses of the larval zebrafish can be measured by a motion index (MI) that quantifies the motor activity of at least about 8 zebrafish larvae in each well of a 96-well plate.
# Referring to FIGS. 1A-1B, zebrafish behavioral profiles can include a battery of individual behavioral assays labeled ASR1, AVSR1, ASR2, VSR1, VSR2, VSR3, VSR4, AVSR2, VSR5, AVSR3, and VSR6, as described herein. These behavioral assays can be combined to form a Motion Index (MI), which is a quantification of the motor activity of at least about 8 zebrafish larvae in each well of a 96-well plate. As shown in the representative images of FIGS. 1A-1B, zebrafish larvae were treated with DMSO (control), VU0463271 (FIG. 1A), or pentylentetrazol or PTZ (FIG. 1B).
# Treatment with increasing doses of VU0463271 induced a unique and dose-dependent profile of behavioral responses, detectable at 2.5 μM and 5 μM. […] This relatively low concentration of VU0463271 elicited a reproducible behavioral profile with altered sensitivity of the fish larvae to specific combinations of stimuli. […] The increased MI in the AVSR1 and AVSR3 assays due to VU0463271 treatment reflects a seizure-like hyperexcitability in the larval fish.
# Additionally, seizures have been induced in 7 dpf zebrafish larvae using pentylentetrazol (PTZ) treatment, and motor and electroencephalographic (EEG) responses were consistent with seizure phenotypes.
SMILES,rate of 10 mM [K+]o-induced thallium influx (KCC2-mediated flux) [1],MI in the ASR2 and VSR assays ([2]; 2.5 μM),"behavioral responses in the AVSR1 and AVSR3 assays ([2]; 2.5 μM, seizure-like hyperexcitability)","effect on MI along the assay battery ([2]; 10 μM, very low MI)",concentration at which the dose-dependent profile of behavioral responses was detectable ([2]; 7 dpf larvae)
CCN1C(=O)C=CC1=O [N-ethylmaleimide],significantly increased,,,,
"Cc1csc(N(C(=O)CSc2ccc(-c3ccccc3)nn2)C2CC2)n1 [VU0463271, N-Cyclopropyl-N-(4-methyl-2-thiazolyl)-2-[(6-phenyl-3-pyridazinyl)thio]acetamide]",significantly reduced,reduced,increased,sedative effect,2.5 µM and 5 µM
